Laboratory results taken from ChEMBL document CHEMBL5154765, “Design, synthesis, and biological evaluation of novel spiro[pyrrolidine-2,3'-quinolin]-2'-one derivatives as potential chitin synthase inhibitors and antifungal agents” (Eur J Med Chem, 2022).
Converted amounts (≈) assume the structure as drawn. The source made the active and inactive calls. No cut-off for these calls is given here.

Key:
[1] = system: Candida tropicalis; assay: Inhibition of Candida tropicalis ATCC750 chitin synthase at 300 ug/ml using UDP-GlcNAc as substrate incubated for 1 hr by microplate reader analysis relative to control; settings: dose 300.0 µg/ml
[2] = Inhibition of Candida tropicalis ATCC750 chitin synthase using UDP-GlcNAc as substrate incubated for 1 hr by microplate reader analysis
[3] = system: Candida albicans; assay: Antifungal activity against Candida albicans ATCC 76615 assessed as reduction in fungal growth incubated for 24 hrs by two fold broth dilution method; assay type: functional
[4] = system: Aspergillus flavus; assay: Antifungal activity against Aspergillus flavus ATCC 16870 assessed as reduction in fungal growth incubated for 24 hrs by two fold broth dilution method; assay type: functional
[5] = system: Aspergillus fumigatus; assay: Antifungal activity against Aspergillus fumigatus GIMCC 3.19 assessed as reduction in fungal growth incubated for 24 hrs by two fold broth dilution method; assay type: functional
[6] = system: Cryptococcus neoformans; assay: Antifungal activity against Cryptococcus neoformans ATCC 32719 assessed as reduction in fungal growth incubated for 24 hrs by two fold broth dilution method; assay type: functional
[7] = system: Candida albicans; assay: Antifungal activity against Candida albicans ATCC 76615 assessed as reduction in fungal growth in presence of sorbitol incubated for 24 hrs by two fold broth dilution method; assay type: functional
[8] = system: Aspergillus flavus; assay: Antifungal activity against Aspergillus flavus ATCC 16870 assessed as reduction in fungal growth in presence of sorbitol incubated for 24 hrs by two fold broth dilution method; assay type: functional
[9] = system: Aspergillus fumigatus; assay: Antifungal activity against Aspergillus fumigatus GIMCC 3.19 assessed as reduction in fungal growth in presence of sorbitol incubated for 24 hrs by two fold broth dilution method; assay type: functional
[10] = system: Cryptococcus neoformans; assay: Antifungal activity against Cryptococcus neoformans ATCC 32719 assessed as reduction in fungal growth in presence of sorbitol incubated for 24 hrs by two fold broth dilution method; assay type: functional
[11] = system: Candida albicans; assay: Antifungal activity against fluconazole resistant Candida albicans ATCC 76615 assessed as reduction in fungal growth incubated for 24 hrs by two fold broth dilution method; assay type: functional
[12] = system: Aspergillus flavus; assay: Antifungal activity against fluconazole resistant Aspergillus flavus ATCC 16870 assessed as reduction in fungal growth incubated for 24 hrs by two fold broth dilution method; assay type: functional
[13] = system: Aspergillus fumigatus; assay: Antifungal activity against fluconazole resistant Aspergillus fumigatus GIMCC 3.19 assessed as reduction in fungal growth incubated for 24 hrs by two fold broth dilution method; assay type: functional
[14] = system: Cryptococcus neoformans; assay: Antifungal activity against fluconazole resistant Cryptococcus neoformans ATCC 32719 assessed as reduction in fungal growth incubated for 24 hrs by two fold broth dilution method; assay type: functional
[15] = system: Candida albicans; assay: Antifungal activity against micafungin resistant Candida albicans ATCC 76615 assessed as reduction in fungal growth incubated for 24 hrs by two fold broth dilution method; assay type: functional
[16] = system: Candida albicans; assay: Antifungal activity against Candida albicans ATCC 76615 incubated for 72 hrs in presence of fluconazole by checker board assay; assay type: functional
[17] = system: Aspergillus flavus; assay: Antifungal activity against Aspergillus flavus ATCC 16870 incubated for 72 hrs in presence of fluconazole by checker board assay; assay type: functional
[18] = system: Aspergillus fumigatus; assay: Antifungal activity against Aspergillus fumigatus GIMCC 3.19 incubated for 72 hrs in presence of fluconazole by checker board assay; assay type: functional
[19] = system: Cryptococcus neoformans; assay: Antifungal activity against Cryptococcus neoformans ATCC 32719 incubated for 72 hrs in presence of fluconazole by checker board assay; assay type: functional
[20] = system: Candida albicans; assay: Antifungal activity against Candida albicans ATCC 76615 assessed as fluconazole MIC incubated for 72 hrs by checker board assay; assay type: functional
[21] = system: Aspergillus flavus; assay: Antifungal activity against Aspergillus flavus ATCC 16870 assessed as fluconazole MIC incubated for 72 hrs by checker board assay; assay type: functional
[22] = system: Aspergillus fumigatus; assay: Antifungal activity against Aspergillus fumigatus GIMCC 3.19 assessed as fluconazole MIC incubated for 72 hrs by checker board assay; assay type: functional
[23] = system: Cryptococcus neoformans; assay: Antifungal activity against Cryptococcus neoformans ATCC 32719 assessed as fluconazole MIC incubated for 72 hrs by checker board assay; assay type: functional
[24] = system: Cryptococcus neoformans; assay: Synergistic antifungal activity against Cryptococcus neoformans ATCC 32719 assessed as fractional inhibitory concentration index incubated for 72 hrs in presence of fluconazole by checker board assay; assay type: functional
[25] = system: Candida albicans; assay: Synergistic antifungal activity against Candida albicans ATCC 76615 assessed as fractional inhibitory concentration index incubated for 72 hrs in presence of fluconazole by checker board assay; assay type: functional
[26] = system: Aspergillus flavus; assay: Synergistic antifungal activity against Aspergillus flavus ATCC 16870 assessed as fractional inhibitory concentration index incubated for 72 hrs in presence of fluconazole by checker board assay; assay type: functional
[27] = system: Aspergillus fumigatus; assay: Synergistic antifungal activity against Aspergillus fumigatus GIMCC 3.19 assessed as fractional inhibitory concentration index incubated for 72 hrs in presence of fluconazole by checker board assay; assay type: functional
[28] = system: Candida albicans; assay: Antifungal activity against Candida albicans ATCC 76615 incubated for 72 hrs in presence of polyoxin B by checker board assay; assay type: functional
[29] = system: Aspergillus flavus; assay: Antifungal activity against Aspergillus flavus ATCC 16870 incubated for 72 hrs in presence of polyoxin B by checker board assay; assay type: functional
[30] = system: Aspergillus fumigatus; assay: Antifungal activity against Aspergillus fumigatus GIMCC 3.19 incubated for 72 hrs in presence of polyoxin B by checker board assay; assay type: functional
[31] = system: Cryptococcus neoformans; assay: Antifungal activity against Cryptococcus neoformans ATCC 32719 incubated for 72 hrs in presence of polyoxin B by checker board assay; assay type: functional
[32] = system: Candida albicans; assay: Synergistic antifungal activity against Candida albicans ATCC 76615 assessed as fractional inhibitory concentration index incubated for 72 hrs in presence of polyoxin B by checker board assay; assay type: functional
[33] = system: Aspergillus flavus; assay: Synergistic antifungal activity against Aspergillus flavus ATCC 16870 assessed as fractional inhibitory concentration index incubated for 72 hrs in presence of polyoxin B by checker board assay; assay type: functional
[34] = system: Aspergillus fumigatus; assay: Synergistic antifungal activity against Aspergillus fumigatus GIMCC 3.19 assessed as fractional inhibitory concentration index incubated for 72 hrs in presence of polyoxin B by checker board assay; assay type: functional
[35] = system: Cryptococcus neoformans; assay: Synergistic antifungal activity against Cryptococcus neoformans ATCC 32719 assessed as fractional inhibitory concentration index incubated for 72 hrs in presence of polyoxin B by checker board assay; assay type: functional
[36] = system: Candida albicans; assay: Antifungal activity against Candida albicans ATCC 76615 assessed as polyoxin B MIC incubated for 72 hrs by checker board assay; assay type: functional
[37] = system: Aspergillus flavus; assay: Antifungal activity against Aspergillus flavus ATCC 16870 assessed as polyoxin B MIC incubated for 72 hrs by checker board assay; assay type: functional
[38] = system: Aspergillus fumigatus; assay: Antifungal activity against Aspergillus fumigatus GIMCC 3.19 assessed as polyoxin B MIC incubated for 72 hrs by checker board assay; assay type: functional
[39] = system: Cryptococcus neoformans; assay: Antifungal activity against Cryptococcus neoformans ATCC 32719 assessed as polyoxin B MIC incubated for 72 hrs by checker board assay; assay type: functional
[40] = Binding affinity to Candida tropicalis ATCC750 chitin synthase assessed as inhibition constant using UDP-GlcNAc as substrate incubated for 10 hrs by Lineweaver-burk plot analysis
[41] = system: Candida tropicalis; assay: Noncompetitive inhibition of Candida tropicalis ATCC750 assessed as decrease in Vmax with constant Km at 0.05 to 0.15 mM using UDP-GlcNAc as substrate incubated for 10 hrs by Lineweaver-burk plot analysis; settings: dose 0.05-0.15 mM

SMILES: O=C(/C=C/C(=O)N1CCCC12Cc1ccccc1NC2=O)Nc1ccc(Cl)c(F)c1 (centres undefined)
- inhibition [1]: 82.6%
- IC50 [2]: 110 µM
- MIC [3]: 2 µg/mL (≈ 4.67 µM)
- MIC [4]: 4 µg/mL (≈ 9.35 µM)
- MIC [5]: 4 µg/mL (≈ 9.35 µM)
- MIC [6]: 8 µg/mL (≈ 18.7 µM)
- MIC [7]: 16 µg/mL
- MIC [8]: 64 µg/mL
- MIC [9]: 32 µg/mL
- MIC [10]: 64 µg/mL
- MIC [11]: 32 µg/mL (≈ 74.8 µM)
- MIC [12]: 32 µg/mL (≈ 74.8 µM)
- MIC [13]: 128 µg/mL (≈ 299 µM)
- MIC [14]: 256 µg/mL (≈ 598 µM)
- MIC [15]: 32 µg/mL (≈ 74.8 µM)
- MIC [16]: 0.5 µg/mL
- MIC [17]: 2 µg/mL
- MIC [18]: 1 µg/mL
- MIC [19]: 4 µg/mL
- MIC [20]: 1 µg/mL
- MIC [21]: 1 µg/mL
- MIC [22]: 1 µg/mL
- MIC [23]: 8 µg/mL
- fractional inhibitory concentration index (FICI) [24]: 1.5
- fractional inhibitory concentration index (FICI) [25]: 0.5
- fractional inhibitory concentration index (FICI) [26]: 0.63
- fractional inhibitory concentration index (FICI) [27]: 0.5
- MIC [28]: 2 µg/mL
- MIC [29]: 4 µg/mL
- MIC [30]: 2 µg/mL
- MIC [31]: 4 µg/mL
- fractional inhibitory concentration index (FICI) [32]: 2
- fractional inhibitory concentration index (FICI) [33]: 2
- fractional inhibitory concentration index (FICI) [34]: 0.75
- fractional inhibitory concentration index (FICI) [35]: 0.75
- MIC [36]: 8 µg/mL
- MIC [37]: 8 µg/mL
- MIC [38]: 2 µg/mL
- MIC [39]: 4 µg/mL

SMILES: O=C(/C=C/C(=O)N1CCCC12Cc1ccccc1NC2=O)Nc1cccc([N+](=O)[O-])c1 (centres undefined)
- inhibition [1]: 83.4%
- IC50 [2]: 100 µM
- Ki [40]: 110 µM
- MIC [3]: 2 µg/mL (≈ 4.76 µM)
- MIC [4]: 4 µg/mL (≈ 9.51 µM)
- MIC [5]: 4 µg/mL (≈ 9.51 µM)
- MIC [6]: 8 µg/mL (≈ 19 µM)
- MIC [7]: 16 µg/mL
- MIC [8]: 64 µg/mL
- MIC [9]: 128 µg/mL
- MIC [10]: 64 µg/mL
- MIC [11]: 32 µg/mL (≈ 76.1 µM)
- MIC [12]: 32 µg/mL (≈ 76.1 µM)
- MIC [13]: 32 µg/mL (≈ 76.1 µM)
- MIC [14]: 64 µg/mL (≈ 152 µM)
- MIC [15]: 32 µg/mL (≈ 76.1 µM)
- MIC [16]: 1 µg/mL
- MIC [17]: 2 µg/mL
- MIC [18]: 0.5 µg/mL
- MIC [19]: 4 µg/mL
- MIC [20]: 1 µg/mL
- MIC [21]: 1 µg/mL
- MIC [22]: 4 µg/mL
- MIC [23]: 1 µg/mL
- fractional inhibitory concentration index (FICI) [24]: 0.63
- fractional inhibitory concentration index (FICI) [25]: 0.75
- fractional inhibitory concentration index (FICI) [26]: 0.63
- fractional inhibitory concentration index (FICI) [27]: 1.13
- MIC [28]: 2 µg/mL
- MIC [29]: 4 µg/mL
- MIC [30]: 4 µg/mL
- MIC [31]: 4 µg/mL
- fractional inhibitory concentration index (FICI) [32]: 1.5
- fractional inhibitory concentration index (FICI) [33]: 1.5
- fractional inhibitory concentration index (FICI) [34]: 1.5
- fractional inhibitory concentration index (FICI) [35]: 0.75
- inhibition [41]: Active
- MIC [36]: 4 µg/mL
- MIC [37]: 4 µg/mL
- MIC [38]: 4 µg/mL
- MIC [39]: 4 µg/mL

SMILES: O=C(/C=C/C(=O)N1CCCC12Cc1ccccc1NC2=O)Nc1ccc(F)cc1 (centres undefined)
- inhibition [1]: 77.9%
- IC50 [2]: 130 µM
- MIC [3]: 4 µg/mL (≈ 10.2 µM)
- MIC [4]: 8 µg/mL (≈ 20.3 µM)
- MIC [5]: 8 µg/mL (≈ 20.3 µM)
- MIC [6]: 8 µg/mL (≈ 20.3 µM)
- MIC [7]: 32 µg/mL
- MIC [8]: 64 µg/mL
- MIC [9]: 128 µg/mL
- MIC [10]: 64 µg/mL
- MIC [11]: 64 µg/mL (≈ 163 µM)
- MIC [12]: 32 µg/mL (≈ 81.3 µM)
- MIC [13]: 256 µg/mL (≈ 651 µM)
- MIC [14]: 256 µg/mL (≈ 651 µM)
- MIC [15]: 64 µg/mL (≈ 163 µM)
- MIC [16]: 2 µg/mL
- MIC [17]: 4 µg/mL
- MIC [18]: 2 µg/mL
- MIC [19]: 2 µg/mL
- MIC [20]: 1 µg/mL
- MIC [21]: 2 µg/mL
- MIC [22]: 2 µg/mL
- MIC [23]: 4 µg/mL
- fractional inhibitory concentration index (FICI) [24]: 0.75
- fractional inhibitory concentration index (FICI) [25]: 0.75
- fractional inhibitory concentration index (FICI) [26]: 0.75
- fractional inhibitory concentration index (FICI) [27]: 0.75
- MIC [28]: 1 µg/mL
- MIC [29]: 8 µg/mL
- MIC [30]: 4 µg/mL
- MIC [31]: 8 µg/mL
- fractional inhibitory concentration index (FICI) [32]: 0.75
- fractional inhibitory concentration index (FICI) [33]: 1.5
- fractional inhibitory concentration index (FICI) [34]: 0.75
- fractional inhibitory concentration index (FICI) [35]: 1.5
- MIC [36]: 4 µg/mL
- MIC [37]: 4 µg/mL
- MIC [38]: 2 µg/mL
- MIC [39]: 8 µg/mL
